# Tests used:
# [1] = system: PI3K-AKT-mTOR-eIF4F-Myc signal cascade in LY10 cells; conditions: LY10, 24 h, PI3K inhibitors 3 μM, proteasome inhibitors 2 nM, single or combined
# DLBCL cell line LY10 = assay: Growth inhibition / viability of LY10 cells (CellTiter Glo), single agents and combinations, Bliss synergy; format: cell-based, human; conditions: LY10, 24 h, single agent
# primary SLL cells = assay: Cytotoxicity in primary SLL cells (Cell Titer Glo); format: cell-based, human; conditions: 48 hours, 2.5, 5, and 7.5 nM
# CK1ε [2] = molecular target: T1, CK1ε (Homo sapiens, UniProt P49674); assay: CK1ε autophosphorylation assay (calyculin A, Western blot); format: cell-based; design: Full-length recombinant human CK1ε (CK1epsilon) was expressed by baculovirus in Sf9 insect cells; GST (N); purchased Promega; host or cells: Sf9 insect cells (baculovirus)
# T1 sequence (P49674 whole entry): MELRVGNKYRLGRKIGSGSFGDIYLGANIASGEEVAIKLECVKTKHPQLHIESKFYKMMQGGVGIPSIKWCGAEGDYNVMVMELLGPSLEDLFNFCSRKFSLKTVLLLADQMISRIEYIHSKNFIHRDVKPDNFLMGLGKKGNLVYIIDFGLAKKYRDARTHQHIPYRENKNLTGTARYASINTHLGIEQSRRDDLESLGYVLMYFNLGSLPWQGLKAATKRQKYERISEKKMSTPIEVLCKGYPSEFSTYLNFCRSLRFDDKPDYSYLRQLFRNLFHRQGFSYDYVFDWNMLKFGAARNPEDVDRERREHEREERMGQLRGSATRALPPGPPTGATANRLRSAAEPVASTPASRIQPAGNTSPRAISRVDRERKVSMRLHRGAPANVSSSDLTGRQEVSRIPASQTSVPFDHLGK
# Western blot, LY7 cells = format: cell-based, human; conditions: LY7 and LY10, 24 h
# [3] = system: phosphorylation of 4EBP1 and protein level of c-Myc in LY7 cells; assay: Western blot, LY7 cells; format: cell-based, human; conditions: for expression of c-Myc at 24 h: single agents
# CK1ε [4] = molecular target: T1, CK1ε; assay: CK1ε kinase activity assay (ADP-Glo, Promega)
# Protocol: CK1ε kinase activity was determined using the CK1ε enzyme system from Promega, according to the manufacturer's instruction. […] The luminescent signal positively correlates with ADP amount and kinase activity.
# Next, the CK1ε inhibiting activity of the above compounds was experimentally determined using the ADP-Glo™ Kinase Assay kit from Promega and recombinant CK1ε expressed by baculovirus in Sf9 insect cells.
# DLBCL cell line LY7 = assay: LY7 viability (Cell Titer Glo); format: cell-based, human; conditions: for activity inhibiting LY7 lymphoma cells (viability): 24 h, 10-50 μM, single agents
# [5] = system: cap dependent translation downstream of the 5′ UTR of c-MYC; assay: Bicistronic luciferase reporter assay for c-Myc 5'UTR driven translation in LY7; format: cell-based, human; conditions: LY7 stably expressing reporter, 24 hr, 25 μM
# primary AITL cells = assay: Cytotoxicity in primary AITL cells; format: cell-based, human
# Protocol: (§1) Blood from consented patients was drawn into 10 ml EDTA-vacutainers. Blood was mixed with PBS containing 2 mM EDTA and 0.5% BSA in a 1:2 Ratio Blood to PBS. Next fifteen milliliters of Ficoll-Paque Plus (GE Healthcare) was pipetted into 50 ml centrifuge tubes, with blood-PBS mixture layered on top. Tubes were centrifuged at 400×g for 40 min at room temperature with no brake. PBMC's in the buffy coat were collected by pipette and washed in EDTA-BSA PBS. Supernatant was removed and 10 ml ACK Lysis Buffer (Thermo Fisher) was used to remove Erythrocytes. Pellets were again washed in EDTA-BSA PBS, resuspended and counted via automated cell counter. Cytotoxicity and Western Blotting assays were performed according to protocol.
# patients with DLBCL [6] = conditions: 9 patients; Westin 2014; cited from earlier work
# [7] = system: primary CLL and MCL cells; assay: Cytotoxicity in primary CLL and MCL cells; conditions: 48 hours
# Protocol: Pharmacological activities of PI3K and proteasome inhibitors in primary lymphoma cells. […] Cytotoxicity. Primary cells were isolated by ficoll gradient separation from three patients with SLL (FIG. 6A & FIG. 6B), CLL (FIG. 6C & FIG. 6D), MCL (FIG. 6E & FIG. 6F) respectively. The SLL cells were from pleural fluid, and the CLL and MCL cells were from peripheral blood. The cells were incubated with the experimental drugs as single agents and in combinations for 48 hours. The viability was determined by Cell Titer Glo, and presented as a function of each treatment conditions, as a percentage of the untreated control.
# as §1
# CK1ε [8] = molecular target: T1, CK1ε; assay: Kinome profiling (Reaction Biology, radioisotope filter binding); conditions: cell free, 1 μM
# Protocol: Kinome profiling was performed using the radioisotope filter binding assay from Reaction Biology.
# caspase 3/7 = assay: Activation of caspase 3/7 in LY10; format: cell-based, human; conditions: LY10, 24 h
# From the text: FIG. 3. […] FIG. 3L-N: PARP cleavage.
# patients with DLBCL [9] = assay: Clinical trials in patients with DLBCL; format: in vivo, human
# [10] = system: phosphorylated AKT at Ser473; assay: Inhibition of S473 p-AKT in serum-starved leukemia and lymphoma cell lines; format: cell-based, human; conditions: 1 μM, 4 hours
# MOLT-4 cell line = assay: Subcutaneous xenograft model of T-ALL (MOLT-4) in NOD/SCID mice; format: in vivo; conditions: daily oral 150 mg/kg, day 24, p<0.001
smiles,measurement,setting,value
"CC(C)C[C@H](NC(=O)[C@H](CCc1ccccc1)NC(=O)CN1CCOCC1)C(=O)N[C@@H](Cc1ccccc1)C(=O)N[C@@H](CC(C)C)C(=O)[C@@]1(C)CO1 [Carfilzomib, (S)-4-methyl-N—((S)-1-(((S)-4-methyl-1-((R)-2-methyloxiran-2-yl)-1-oxopentan-2-yl)amino)-1-oxo-3-phenylpropan-2-yl)-2-((S)-2-(2-morpholinoacetamido)-4-phenylbutanamido)pentanamide]",inhibition of phosphorylation of 4EBP1,[1],marginal or no inhibition
same,inhibition of phosphorylation of AKT,[1],comparable and modest inhibition
same,percentage of growth inhibition,DLBCL cell line LY10; 1 to 2 nM,up to 35%
same,inhibition of primary cells,primary SLL cells,10-90%
CC(C)Oc1ccc(-c2nn([C@@H](C)c3nc4cccc(F)c4c(=O)n3-c3ccccc3)c3ncnc(N)c23)cc1F [CUX-03173],autophosphorylation of CK1ε,"CK1ε [2]; LY7, 15 μM, then calyculin A",inhibited
same,beta-catenin level,"Western blot, LY7 cells",inhibited beta-catenin
same,reduction of protein level of c-Myc,"[3]; LY7, 24 h",more effective than idelalisib and PF4800567
same,inhibition of protein level of c-Myc,"[3]; LY7 and LY10, 24 h",as potent as TGR-1202
same,IC50,CK1ε [4],9.4 µM
Nc1ncnc2c1c(COc1cccc(Cl)c1)nn2C1CCOCC1 [PF4800567],activity inhibiting LY7 lymphoma cells (viability),DLBCL cell line LY7,only mild and comparable activity
same,autophosphorylation of CK1ε (up-shifting of the CK1ε band),"CK1ε [2]; LY7, 1 μM, 1 h pretreatment then calyculin A",no up-shifting
same,suppression of phosphorylation of 4EBP1 and protein level of c-Myc,"[3]; LY7, 6 hours, 25-50 μM",only at the concentration of 50 μM
same,phosphorylation of p70S6K1,"[3]; LY7, 24 h",substantially increased
same,reduction of ratio of LucR/LucF by 50%,[5],not
same,IC50,CK1ε [4],0.0074 µM
CC[C@H](Nc1ncnc2nc[nH]c12)c1nc2cccc(F)c2c(=O)n1-c1ccccc1 [Idelalisib],single agent activity in AITL,primary AITL cells,more effective than TGR-1202
same,responses in patients with DLBCL,patients with DLBCL [6],did not produce any responses
same,enhancement of cytotoxicity of bortezomib,[7],did not enhance
same,inhibition of phosphorylation of 4EBP1,[1],moderately inhibit
same,inhibition of phosphorylation of AKT,[1],more effective than TGR-1202
same,activity inhibiting LY7 lymphoma cells (viability),DLBCL cell line LY7,only mild and comparable activity
same,suppression of phosphorylation of 4EBP1 and protein level of c-Myc,"[3]; LY7, 6 hours, 25-50 μM",only at the concentration of 50 μM
same,expression of c-Myc at 24 h,"[3]; LY7, 24 h",rebounded
same,inhibition of kinase activity of CK1 epsilon,CK1ε [8],not observed
same,IC50,CK1ε [4],> 50 µM
same,effect on caspase activation caused by bortezomib,caspase 3/7; 5 μM added to bortezomib,failed to augment
CC(C)Oc1ccc(-c2nn([C@@H](C)c3oc4ccc(F)cc4c(=O)c3-c3cccc(F)c3)c3ncnc(N)c23)cc1F [TGR-1202],inhibition of phosphorylation of 4EBP1,[1],moderately inhibit
same,activity inhibiting LY7 lymphoma cells (viability),DLBCL cell line LY7,significantly more effective than idelalisib and PF4800567
same,potency in cytotoxicity assay,"DLBCL cell line LY7; LY7, 24 h",most potent among these compounds
same,synergy with PP242 inhibiting phosphorylation of 4EBP1 at T70 and cell viability,"DLBCL cell line LY7; LY7, PP […], other drugs 5 and 15 μM",synergistic with PP242
same,beta-catenin level,"Western blot, LY7 cells",inhibited beta-catenin
same,suppression of phosphorylation of 4EBP1 and protein level of c-Myc,"[3]; LY7, 6 h, 15-50 μM",more potent than idelalisib and PF4800567
same,suppression of phosphorylation of 4EBP1 and protein level of c-Myc,"[3]; LY7, 6 hours, 25-50 μM",potently suppressed
same,reduction of protein level of c-Myc,"[3]; LY7, 24 h",more effective than idelalisib and PF4800567
same,inhibition of phosphorylation of 4EBP1 and protein level of c-Myc,"[3]; LY7, 24 h, 25 μM",highly effective
same,expression of c-Myc at 24 h,"[3]; LY7, 24 h",not relieved
same,partial response in patients with DLBCL,patients with DLBCL [9],3 of 14
same,IC50,CK1ε [4],6 µM
same,reduction of phosphorylation of AKT (Ser473),[10],43-87%
same,effect on caspase 3/7 activation by carfilzomib,caspase 3/7; 1 μM added to carfilzomib,markedly enhanced
same,tumor response in xenograft,MOLT-4 cell line,significantly shrank the tumors
CC(C)n1nc(-c2cc3cc(O)ccc3[nH]2)c2c(N)ncnc21 [PP242],phosphorylation of p70S6K1,"[3]; LY7, 24 h",potently inhibited
same,phosphorylation of 4EBP1 at S65,"[3]; LY7, 24 h, 750 nM",markedly inhibited
same,level of c-Myc,"[3]; LY7, 24 h, PP242 treatment",moderately reduced
CC(Nc1ncnc2[nH]cnc12)c1cc2cccc(Cl)c2c(=O)n1-c1ccccc1 (stereo not drawn) [IPI-145],inhibition of kinase activity of CK1 epsilon,CK1ε [8],not observed
"CC(C)C[C@H](NC(=O)[C@H](Cc1ccccc1)NC(=O)c1cnccn1)B(O)O [Bortezomib, [(1R)-3-methyl-1-({(2S)-3-phenyl-2-[(pyrazin-2-ylcarbonyl)amino]propanoyl}amino)butyl]boronic acid]",single agent activity in AITL,primary AITL cells,more potent than carfilzomib
same,inhibition of phosphorylation of 4EBP1,[1],marginal or no inhibition
same,inhibition of phosphorylation of AKT,[1],comparable and modest inhibition
same,percentage of growth inhibition,DLBCL cell line LY10; 1 to 3 nM,did not produce significant inhibition
same,percentage of growth inhibition,DLBCL cell line LY10; 4 to 8 nM,42-90%
same,inhibition of primary cells,primary SLL cells,10-80%

# Reference: patent US20190070183A1, “Targeting Casein Kinase-1 and PI3K/AKT/mTOR Pathways for Treatment of c-Myc-Overexpressing Cancers, Organ Transplant Associated Complications and Autoimmune Diseases” (The Trustees of Columbia University in the City of New York, priority 2015, published 2019)
